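The compound was tested at five concentrations on cells cultured in 96-well plates, with a 48-hour exposure period. At the GI50, growth is halved.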 Active and inactive are the calls of the source. Cut-off read from the data, not from the text of the source: active = GI50 up to about 1.1 µM and inactive = higher.
Key:
Experiment in all cases: NCI tumour cell line growth inhibition, 48 h
[1] = system: IGROV-1
[2] = system: A498
[3] = system: A549
[4] = system: SNB-75
[5] = system: SK-MEL-2
[6] = system: SN12C
[7] = system: SK-MEL-5
[8] = system: SF-295
[9] = system: HCT-15
[10] = system: COLO 205
[11] = system: ACHN
[12] = system: UACC-62
[13] = system: Malme-3M
[14] = system: CCRF-CEM
[15] = system: MDA-MB-231
[16] = system: HOP-92
[17] = system: NCI-H522
[18] = system: K562
[19] = system: 786-0
[20] = system: OVCAR-5

CCCCCCCCCCCCCCCCCCNc1ccn(C2OC(COP(=O)(O)OCC3OC(n4cc(C)c(=O)[nH]c4=O)CC3F)C(O)C2O)c(=O)n1 (stereo not given)
GI50 [1]: 5.78 µM (inactive) | GI50 [2]: 13.8 µM (inactive) | GI50 [3]: 11.2 µM (inactive) | GI50 [4]: 19.8 µM (inactive) | GI50 [5]: 9.14 µM (inactive) | GI50 [6]: 7.87 µM (inactive) | GI50 [7]: 9.89 µM (inactive) | GI50 [8]: 9.89 µM (inactive) | GI50 [9]: 6.01 µM | GI50 [10]: 3.34 µM (inactive) | GI50 [11]: 13 µM (inactive) | GI50 [12]: 6.24 µM (inactive) | GI50 [13]: 15 µM (inactive) | GI50 [14]: 4.61 µM (inactive) | GI50 [15]: 10.7 µM (inactive) | GI50 [16]: 18.4 µM (inactive) | GI50 [17]: 4.29 µM (inactive) | GI50 [18]: 8.55 µM (inactive) | GI50 [19]: 4.06 µM (inactive) | GI50 [20]: 2.56 µM (inactive)

O=C(O)CN1CCNCCN(CC(=O)O)CCN(CC(=O)O)CCNCC1
GI50 [1]: > 100 µM (inactive) | GI50 [2]: 71.9 µM (inactive) | GI50 [3]: > 100 µM (inactive) | GI50 [4]: 63.4 µM (inactive) | GI50 [5]: > 100 µM (inactive) | GI50 [6]: > 100 µM (inactive) | GI50 [7]: > 100 µM (inactive) | GI50 [8]: > 100 µM (inactive) | GI50 [9]: 61.9 µM | GI50 [10]: 64.1 µM (inactive) | GI50 [11]: > 100 µM (inactive) | GI50 [12]: 84.7 µM (inactive) | GI50 [13]: > 100 µM (inactive) | GI50 [14]: > 100 µM (inactive) | GI50 [15]: > 100 µM (inactive) | GI50 [16]: > 100 µM (inactive) | GI50 [17]: 18.2 µM (inactive) | GI50 [18]: 85.3 µM (inactive) | GI50 [19]: 93.3 µM (inactive) | GI50 [20]: 97.7 µM (inactive)

CN(C)/C=N\c1c(Br)cc(Br)c2nonc12
GI50 [1]: > 100 µM (inactive) | GI50 [2]: > 100 µM (inactive) | GI50 [3]: > 100 µM (inactive) | GI50 [4]: 44.3 µM (inactive) | GI50 [5]: > 100 µM (inactive) | GI50 [6]: > 100 µM (inactive) | GI50 [7]: > 100 µM (inactive) | GI50 [8]: > 100 µM (inactive) | GI50 [9]: > 100 µM | GI50 [10]: > 100 µM (inactive) | GI50 [11]: > 100 µM (inactive) | GI50 [12]: > 100 µM (inactive) | GI50 [13]: > 100 µM (inactive) | GI50 [14]: > 100 µM (inactive) | GI50 [15]: > 100 µM (inactive) | GI50 [16]: 85.7 µM (inactive) | GI50 [17]: > 100 µM (inactive) | GI50 [18]: > 100 µM (inactive) | GI50 [19]: > 100 µM (inactive) | GI50 [20]: > 100 µM (inactive)

COc1ccc(Cc2ccc3nc(O)cc(C)c3c2)cc1S(=O)(=O)O
GI50 [1]: > 100 µM (inactive) | GI50 [2]: > 100 µM (inactive) | GI50 [3]: > 100 µM (inactive) | GI50 [4]: > 100 µM (inactive) | GI50 [5]: > 100 µM (inactive) | GI50 [6]: > 100 µM (inactive) | GI50 [7]: > 100 µM (inactive) | GI50 [8]: > 100 µM (inactive) | GI50 [9]: > 100 µM | GI50 [10]: > 100 µM (inactive) | GI50 [11]: > 100 µM (inactive) | GI50 [12]: > 100 µM (inactive) | GI50 [13]: > 100 µM (inactive) | GI50 [14]: > 100 µM (inactive) | GI50 [15]: > 100 µM (inactive) | GI50 [16]: > 100 µM (inactive) | GI50 [17]: > 100 µM (inactive) | GI50 [18]: > 100 µM (inactive) | GI50 [19]: > 100 µM (inactive) | GI50 [20]: > 100 µM (inactive)
